In US8440810B2, “Riboswitches, methods for their use, and compositions for use with riboswitches” (Yale University, priority 2002, dated 2013):
“Also recorded” adds a separate entry of the source. Read-outs that look alike come from different tables or passages of the source.

How the values were obtained:
[1] = tested on: 202-nucleotide leader sequence of the btuB mRNA; assay type: binding, Escherichia coli; settings: AdoCbl analogs of FIG. 4
Description: Precursor mRNA leader molecules were prepared by in vitro transcription from templates generated by PCR (see In vivo Expression Constructs and Assays section below) and 5′ ^32p-labeled using methods described previously (Soukup and Breaker, Allosteric nucleic acid catalysts. Curr. Opin. Struct. Biol. 10, […] (2000)). Approximately 20 nM of labeled RNA precursor was incubated as described in the brief description of FIG. 1. Accompanying digestions were carried out using reaction conditions similar to those described previously (Soukup and Breaker, Relationship between internucleotide linkage geometry and the stability of […]. RNA 5, 1308-1325 (1999)). […]
Metabolite-dependent conformational changes in the 202-nucleotide leader sequence of the btuB mRNA. […] The image was generated using a phosphorimager (Molecular Dynamics), and cleavage yields were quantitated by using ImageQuant software. […]
The btuB mRNA leader forms a saturable binding site for AdoCbl. […] 5′-^32P-labeled mRNA leader molecules were incubated, separated, and analyzed as described in the in the legend to FIG. 1A, and include identical control and marker lanes as indicated. […] Fraction cleaved values were normalized relative to the highest and lowest cleavage values measured for each location, including the values obtained upon incubation in the absence of AdoCbl. […]

btuB leader-lacZ fusion [2] = assay: btuB-lacZ expression assay; assay type: cell-based, E. coli; settings: wild-type btuB leader
80 ydhL RNA = assay: In-line probing of 80 ydhL RNA; assay type: binding, B. subtilis
93 xpt RNA [3] = assay: In-line probing of 93 xpt RNA; assay type: binding, B. subtilis; settings: for modulation of spontaneous cleavage pattern: 1 μM (adenine as much as 1 mM), 93 xpt and 201 xpt
179 lysC RNA [4] = assay type: binding, B. subtilis; settings: 50 μM unlabeled compound, additional 10 hr
lysC 5′-UTR template = assay: In vitro transcription termination assay, lysC 5′-UTR; settings: 10 mM compound
124 yitJ RNA = assay: In-line probing of 124 yitJ RNA; assay type: binding, B. subtilis
metI leader construct = assay type: biochemical, B. subtilis; settings: 50 μM; in all instances (yitJ, yoaD, metK, metI leaders)
165 thiM RNA = assay type: binding, E. coli; settings: for structure modulation: 40 μM each compound; for Kd: thiM RNA as reported in Example 3 (FIG. 13), read-out: apparent KD
Description: Specifically, TPP-dependent modulation of the spontaneous cleavage of RNA constructs was visualized by polyacrylamide gel electrophoresis (PAGE). […] Some RNAs were subjected to no reaction, partial digestion with alkali, or partial digestion with RNase T1 (G-specific cleavage) (see FIG. 6a). Composite plots of the fraction of RNA cleaved at specific sites versus the logarithm of the concentration of ligand (e.g. FIG. 7a) were generated to provide an estimate of the apparent KD. Fraction cleaved values were normalized relative to the highest and lowest cleavage values measured for each site.
NR, ^−OH and T1 represent RNAs subjected to no reaction, partial digestion with alkali, or partial digestion with RNase Tl (G-specific cleavage), respectively. Product bands representing cleavage after selected G residues are numbered and identified by filled arrowheads. The asterisk identifies modulation of RNA structure involving the Shine-Dalgarno (SD) sequence. Gel separations were analyzed using a phosphorimager (Molecular Dynamics) and quantitated using ImageQuant software.

[5] = tested on: xpt-pbuX 5′-UTR fused to β-galactosidase reporter gene; assay: xpt-lacZ β-galactosidase reporter expression; assay type: cell-based, B. subtilis; settings: wild-type xpt construct, six-hour incubation
[6] = tested on: 93 xpt RNA (C to U mutation at position 74); assay type: binding, B. subtilis
[7] = tested on: wild-type ydhL riboswitch fused to β-galactosidase reporter gene; assay: ydhL-lacZ β-galactosidase reporter expression; assay type: cell-based, B. subtilis
[8] = tested on: xpt riboswitch variant with the C to U mutation at position 74, reporter construct; assay type: cell-based, B. subtilis
93 xpt RNA [9] = assay: Equilibrium dialysis with 93 xpt RNA; assay type: binding, B. subtilis; settings: 500 nM analog
91 thiM RNA = assay: Equilibrium dialysis with thiM RNA using 3H-thiamine; assay type: binding, E. coli; settings: 100 μM competitor (Example 2)
ribD RNA = assay: In-line probing of ribD RNA (RFN element); assay type: binding, B. subtilis
Description: To assess whether the RFN element of ribD was responsive to FMN, a fragment of the corresponding 5′-UTR was 5′-^32P labeled and incubated in the absence and presence of FMN, and the resulting fragments were analyzed by polyacrylamide gel electrophoresis (PAGE). […] To obtain values for apparent dissociation constant (apparent KD) for FMN, in-line probing assays were repeated with trace amounts of ribD RNA and increasing concentrations of FMN; the ligand concentration that correlates with half-maximal modulation of RNA structure should reflect the apparent KD.

[10] = tested on: lysC 5′-UTR fused to lacZ reporter gene; assay type: cell-based, B. subtilis; settings: wild-type construct, minimal medium plus 1 mM compound
179 lysC RNA [11] = assay: In-line probing of 179 lysC RNA; settings: read-out: apparent KD; lysine analogs, data not shown, RNA construct not stated
btuB leader-lacZ fusion [12] = settings: from Nou and Kadner; Lundrigan and Kadner; cited from earlier work
[13] = tested on: 202-nucleotide mRNA leader (btuB); assay: Equilibrium dialysis with btuB mRNA leader; settings: 5,000 pmoles unlabeled compound added to chamber b
[14] = translational fusion, 100 μM thiamine, minimal medium

13-epi-AdoCbl [compound 11]
structural modulation (spontaneous cleavage at site 2, U68) [1]: inactive | regulatory effector function on reporter gene inside cells (btuB leader-lacZ fusion [2]): inactive

Nc1nc(N)c2[nH]cnc2n1 [2,6-DAP, 2,6-diaminopurine]
binding / structural modulation (80 ydhL RNA): measurable binding; also recorded: tightest-binding ligand

Nc1nc(Br)c2[nH]cnc2n1 [2-amino-6-bromopurine]
loss in apparent KD relative to guanine (93 xpt RNA [3]): ~1,000 fold

Nc1ncc2[nH]cnc2n1 [2-aminopurine]
binding / structural modulation (80 ydhL RNA): measurable binding

Nc1ncnc2nc(Cl)[nH]c12 [8-chloroadenine]
binding / structural modulation (80 ydhL RNA): prevents ligand binding

NCCCC[C@@H](N)C(=O)O [D-lysine]
restoration of equal tritium distribution by unlabeled competitor (179 lysC RNA [4]): do not restore equal distribution of tritium | induction of transcription termination (lysC 5′-UTR template): Neither D-lysine nor L-ornithine induce termination

NCCC[C@H](N)C(=O)O [L-ornithine]
restoration of equal tritium distribution by unlabeled competitor (179 lysC RNA [4]): do not restore equal distribution of tritium | induction of transcription termination (lysC 5′-UTR template): Neither D-lysine nor L-ornithine induce termination

CNc1ncnc2nc[nH]c12 [MA, 6-methylaminopurine]
binding / structural modulation (80 ydhL RNA): measurable binding

COc1nc(N)nc2nc[nH]c12 [O^6-methylguanine]
loss in apparent KD relative to guanine (93 xpt RNA [3]): > 100 fold

c1ncc2[nH]cnc2n1 [P, purine]
binding / structural modulation (80 ydhL RNA): measurable binding

Nc1ncnc2c1ncn2[C@@H]1O[C@H](CSC[C@H](N)C(=O)O)[C@@H](O)[C@H]1O [SAC]
discrimination relative to SAM (124 yitJ RNA): ~10,000 fold | modulation of transcription termination (metI leader construct): little or no modulation of transcription termination

Nc1ncnc2c1ncn2[C@@H]1O[C@H](CSCC[C@H](N)C(=O)O)[C@@H](O)[C@H]1O [SAH, S-adenosylhomocysteine]
discrimination relative to SAM (124 yitJ RNA): ~100 fold | modulation of transcription termination (metI leader construct): little or no modulation of transcription termination

Cc1ncc(C[n+]2csc(CCOP(=O)(O)O)c2C)c(N)n1 [TP, thiamine monophosphate]
structure modulation (165 thiM RNA): induce modulation | Kd (165 thiM RNA): 3000 nM

Nc1ncnc2nc[nH]c12 [adenine]
modulation of spontaneous cleavage pattern (93 xpt RNA [3]): does not alter the pattern of RNA cleavage products | apparent KD poorer than for guanine (93 xpt RNA [3]; guanine riboswitch from B. subtilis xpt): at least 100,000 fold | Kd (93 xpt RNA [3]; read-out: KD): > 300000 nM | repression of reporter expression [5]: ~4 fold | binding / structural modulation (80 ydhL RNA): specific for adenine | Kd (80 ydhL RNA; half-maximal change at sites 1 through 4, read-out: apparent KD): ~300 nM | binding / structural modulation (80 ydhL RNA; listed as A): measurable binding | structural modulation and binding in equilibrium dialysis [6]: exhibits structural modulation and binding activity | Kd ([6]; read-out: apparent KD): ~100 nM | increase in gene expression [7]: greater than 10 fold | regulation of reporter expression [8]: no change in the putative protein-dependent control

Nc1nc2c(ncn2[C@@H]2O[C@H](CO)[C@@H](O)[C@H]2O)c(=O)[nH]1 [guanosine]
redistribution of 3H-guanine by excess unlabeled competitor (93 xpt RNA [9]): fails to restore equal distribution

O=c1[nH]cnc2nc[nH]c12 [hypoxanthine]
modulation of spontaneous cleavage pattern (93 xpt RNA [3]): induce modulation of spontaneous cleavage

Cc1ncc(C[n+]2csc(CCO)c2C)c(=O)[nH]1 [oxythiamine]
structure modulation (165 thiM RNA): fail to induce structure modulation | reversal of 3H-thiamine shift by excess unlabeled compound (91 thiM RNA): does not significantly restore the tritium distribution to unity; also recorded: could not be reversed

Cc1cc2nc3c(=O)[nH]c(=O)nc-3n(C[C@H](O)[C@H](O)[C@H](O)CO)c2cc1C [riboflavin]
discrimination relative to FMN (ribD RNA): approximately three orders of magnitude | discrimination relative to FMN (ribD RNA; worded for FMN riboswitches): ~1,000 fold

Cc1ncc(C[n+]2csc(CCO)c2C)c(N)n1 [thiamine]
structure modulation (165 thiM RNA): induce modulation | Kd (165 thiM RNA): 40000 nM | reversal of 3H-thiamine shift by excess unlabeled compound (91 thiM RNA): could be eliminated | suppression of β-galactosidase activity (thiM-lacZ fusion; transcriptional fusion): not subject to suppression | thiamine-dependent suppression of β-galactosidase activity (thiM-lacZ fusion; [14]): 18 fold | modulation of β-galactosidase activity (thiC-lacZ fusion; transcriptional fusion): 16 fold | thiamine-dependent suppression of β-galactosidase activity (thiC-lacZ fusion; [14]): 110 fold

NCCSC[C@H](N)C(=O)O [thiosine, S-(2-aminoethyl)-L-cysteine]
repression of β-galactosidase reporter expression [10]: represses β-galactosidase expression | Kd (179 lysC RNA [11]): ~30000 nM | induction of transcription termination (lysC 5′-UTR template): cause an increase in transcription termination

O=c1[nH]c(=O)c2[nH]cnc2[nH]1 [xanthine]
modulation of spontaneous cleavage pattern (93 xpt RNA [3]): induce modulation of spontaneous cleavage

cyanocobalamin
regulatory effector for btuB expression (btuB leader-lacZ fusion [12]): incapable of serving as a regulatory effector | restoration of equal tritium distribution by excess unlabeled compound [13]: does not restore the ratio of tritium to unity
